Each structure is given as a SMILES string.

Usually inhibition stands for the relative decrease from the control value, in per cent.

In one assay the target is T1, AII receptor (Bos taurus, UniProt P25104).
T1 construct: Tissue of bovine adrenal cortex was finely cut and suspended; from tissue; host or cells: bovine adrenal cortex membrane fraction
T1 sequence (P25104 1-359): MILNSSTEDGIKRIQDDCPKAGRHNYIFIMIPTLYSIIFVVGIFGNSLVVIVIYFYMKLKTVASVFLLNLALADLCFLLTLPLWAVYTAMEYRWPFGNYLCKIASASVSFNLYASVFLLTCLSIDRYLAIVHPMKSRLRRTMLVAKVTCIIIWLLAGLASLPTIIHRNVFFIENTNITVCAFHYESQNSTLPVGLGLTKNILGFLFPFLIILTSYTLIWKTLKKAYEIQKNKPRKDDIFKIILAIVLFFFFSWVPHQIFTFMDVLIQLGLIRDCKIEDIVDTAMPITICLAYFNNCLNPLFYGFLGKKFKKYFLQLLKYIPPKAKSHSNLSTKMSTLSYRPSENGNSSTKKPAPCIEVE
Nature of the assay: Receptor binding test using bovine adrenal cortex ([125I]AII binding). As to conditions: test compound 0.1 µM; receptor binding of [125I]AII (2.5 × 10^-10M); bovine adrenal cortex membranes; room temperature, 2 hours; read-out: Inhibition Rate (%). As for the experimental part: Receptor binding test using bovine adrenal cortex
Tissue of bovine adrenal cortex was finely cut and suspended in a 0.25M sucrose solution containing NaHCO3, ethylenediaminetetraacetic acid (EDTA), leupepsin, pepstatin A and phenylmethanesulfonyl fluoride, followed by homogenization. The homogenate was centrifuged at 3,000 rpm for 10 minutes and the supernatant was centrifuged at 9,000 rpm. Then, the supernatant was further centrifuged at 30,000 rpm for 60 minutes and the precipitate was suspended in NaHCO3-EDTA solution, followed by centrifugation at 30,000 rpm for 60 minutes. The resulting precipitate was suspended in a phosphate buffer and the suspension was used for the binding test as an AII receptor source.
To a test compound or a solvent were added 250 µl of the AII receptor solution prepared above, 250 µl of Tris 50 mM buffer containing 0.2% bovine serum albumin (BSA), and 20 µl of [^125I]AII (2.5 × 10^-10M). The mixture was allowed to stand at room temperature for 2 hours and then filtered through a glass fiber filter (GF/B Wattman). The filter was placed in a test tube and the radioactivity was measured using a gamma-counter.
The inhibitory activity (inhibition rate) of the test compound (0.1 µM) against the receptor binding of [^125I]AII was calculated by the following equation. Inhibition Rate (%) =(1-((Binding Amount in the Presence of a Test Compound)-(Nonspecific Binding Amount))/((Total Binding Amount)-(Nonspecific Binding Amount)))× 100 [formula]
The binding amount in the presence of a test compound is the amount of radioactivity of [^125I]AII bound in the presence of a test compound (0.1 µM).
The total binding amount is the amount of radioactivity of [^125I]AII bound in the absence of a test compound.
The nonspecific binding amount is the amount of radioactivity of [^125I]AII bound in the presence of 1 µM AII.

The subject of assay [1] is hypertensive response to AII. Nature of the assay: Inhibition test against hypertensive response to AII. Type of assay: in vivo, Male Wistar rats. As to conditions: test compound 1 mg/kg orally; 0.3 µg/kg AII intravenously one hour after dosing; average artery blood pressure. On the procedure: Inhibition test against hypertensive response to AII
Male Wistar rats were anesthetized with pentobarbital. A cannula for blood pressure measurement was inserted from the right femoral artery into the abdominal aorta and another cannula for AII injection was inserted into the right femoral vein. The cannulae were passed under skin and fixed after coming out of the back, and the blood pressure was recorded on a polygraph from the artery cannula using a voltage transformer.
On the day after operation, 0.3 µg/kg AII was intravenously injected into each animal and the change in the average artery blood pressure was examined as the control pressor response. Then, a test compound (1 mg/kg) was orally administered and after one hour, 0.3 µg/kg AII was injected again, followed by examination of the pressor response. The inhibitory effect of the test compound against the control pressor response was determined as the inhibition rate.

On to `CCc1nc2c(C)cc(C)nc2n1Cc1ccc2c(c1)CCc1ccccc1N2Cc1nnn[nH]1` [Compound 32, 2-(5,7-Dimethyl-2-ethyl-3H-imidazo[4,5-b]pyridin-3-yl)methyl-5-(1H-tetrazol-5-yl)methyl-5H-10,11-dihydrodibenz[b,f]azepine], for which the inhibition at 0.1 µM on AII receptor was 86%. Also, the “inhibition rate against the control pressor response” value in assay [1] was found to be 45%.

For the origin of these results see patent EP0549352B1, “Tricyclic compounds as angiotensin II antagonists” (KYOWA HAKKO KOGYO CO., LTD., priority 1991, dated 1993).
